# What was measured:
# [1] = tested on: barnyardgrass; assay: Test A pre-/postemergence herbicide test; assay type: in vivo, Echinochloa crus-galli
# Summary of the method: (§1)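 Greenhouse injury scoring (0–100, complete control = 100) at approximately ten days follows simultaneous pre- and postemergence application. Soil received a directed spray after seeding; seedlings of 2–10 cm at the one- to two-leaf stage were sprayed to runoff.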
# [2] = tested on: large crabgrass; assay: Test A pre-/postemergence herbicide test; assay type: in vivo, Digitaria sanguinalis
# Summary of the method: as §1
# [3] = tested on: giant foxtail; assay: Test A pre-/postemergence herbicide test; assay type: in vivo, Setaria faberi
# Summary of the method: as §1
# [4] = tested on: morningglory; assay: Test A pre-/postemergence herbicide test; assay type: in vivo, Ipomoea spp.
# Summary of the method: as §1
# [5] = tested on: redroot pigweed; assay: Test A pre-/postemergence herbicide test; assay type: in vivo, Amaranthus retroflexus
# Summary of the method: as §1
# [6] = tested on: velvetleaf; assay: Test A pre-/postemergence herbicide test; assay type: in vivo, Abutilon theophrasti
# Summary of the method: as §1
# [7] = tested on: barnyardgrass; assay: Test B pre-/postemergence herbicide test; assay type: in vivo, Echinochloa crus-galli; settings: for Plant response rating, Barnyardgrass: preemergence; for Barnyardgrass plant response rating: postemergence, visual rating, scale 0 (no effect) to 100 (complete control)
# Summary of the method: (§2)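 Greenhouse pot assay with simultaneous preemergence (treated seed) and postemergence (2–18 cm seedlings) applications of surfactant-containing, non-phytotoxic solvent formulations. Response scored visually 13–15 days later on a 0–100 scale, 100 meaning complete control.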
# [8] = tested on: Surinam grass; assay: Test B pre-/postemergence herbicide test; assay type: in vivo, Urochloa decumbens; settings: for Plant response rating, Surinam Grass: preemergence; for Surinam Grass plant response rating: postemergence, visual rating, scale 0 (no effect) to 100 (complete control)
# Summary of the method: (§3)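 Pre: seeds sown, then sprayed. Post: 1–4-leaf plants (2–18 cm) sprayed at the same time. Paddy: flooded, treated at 2-leaf stage. Formulation: non-phytotoxic solvent with surfactant. Greenhouse 13–15 days; visual 0–100 score relative to controls.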
# [9] = tested on: cocklebur; assay: Test B pre-/postemergence herbicide test; assay type: in vivo, Xanthium strumarium; settings: for Plant response rating, Cocklebur: preemergence; for Cocklebur plant response rating: postemergence, visual rating, scale 0 (no effect) to 100 (complete control)
# Summary of the method: as §2
# [10] = tested on: corn; assay: Test B pre-/postemergence herbicide test; assay type: in vivo, Zea mays; settings: for Plant response rating, Corn: preemergence; for Corn plant response rating: postemergence, visual rating, scale 0 (no effect) to 100 (complete control)
# Summary of the method: as §3
# [11] = tested on: large crabgrass; assay: Test B pre-/postemergence herbicide test; assay type: in vivo, Digitaria sanguinalis; settings: for Plant response rating, Crabgrass, Large: preemergence; for Crabgrass, Large plant response rating: postemergence, visual rating, scale 0 (no effect) to 100 (complete control)
# Summary of the method: as §3
# [12] = tested on: giant foxtail; assay: Test B pre-/postemergence herbicide test; assay type: in vivo, Setaria faberi; settings: for Plant response rating, Foxtail, Giant: preemergence; for Foxtail, Giant plant response rating: postemergence, visual rating, scale 0 (no effect) to 100 (complete control)
# Summary of the method: as §3
# [13] = tested on: lambsquarters; assay: Test B pre-/postemergence herbicide test; assay type: in vivo, Chenopodium album; settings: for Plant response rating, Lambsquarters: preemergence; for Lambsquarters plant response rating: postemergence, visual rating, scale 0 (no effect) to 100 (complete control)
# Summary of the method: as §3
# [14] = tested on: morningglory; assay: Test B pre-/postemergence herbicide test; assay type: in vivo, Ipomoea coccinea; settings: for Plant response rating, Morningglory: preemergence; for Morningglory plant response rating: postemergence, visual rating, scale 0 (no effect) to 100 (complete control)
# Summary of the method: as §2
# [15] = tested on: pigweed; assay: Test B pre-/postemergence herbicide test; assay type: in vivo, Amaranthus retroflexus; settings: for Plant response rating, Pigweed: preemergence; for Pigweed plant response rating: postemergence, visual rating, scale 0 (no effect) to 100 (complete control)
# Summary of the method: as §3
# [16] = tested on: rice; assay: Test B pre-/postemergence herbicide test; assay type: in vivo, Oryza sativa; settings: preemergence
# Summary of the method: as §3
# [17] = tested on: velvetleaf; assay: Test B pre-/postemergence herbicide test; assay type: in vivo, Abutilon theophrasti; settings: for Plant response rating, Velvetleaf: preemergence; for Velvetleaf plant response rating: postemergence, visual rating, scale 0 (no effect) to 100 (complete control)
# Summary of the method: as §3
# [18] = tested on: blackgrass; assay: Test B postemergence herbicide test; assay type: in vivo, Alopecurus myosuroides; settings: postemergence, visual rating, scale 0 (no effect) to 100 (complete control)
# Summary of the method: (§4)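 Greenhouse test; postemergence application to plants at 1–4 leaves (2–18 cm); paddy species at 2 leaves; evaluated visually vs controls at 13–15 days; scale 0–100 (100 = complete control).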
# [19] = tested on: wheat; assay: Test B postemergence herbicide test; assay type: in vivo, Triticum aestivum; set-up: key to Wheat plant response rating: 0 = no effect, 100 = complete control; settings: postemergence, 500 g ai/ha; visual rating, scale 0 (no effect) to 100 (complete control)
# Summary of the method: as §4
# [20] = tested on: wild oat; assay: Test B postemergence herbicide test; assay type: in vivo, Avena fatua; settings: postemergence, visual rating, scale 0 (no effect) to 100 (complete control)
# Summary of the method: as §4
# [21] = tested on: rice; assay: Test B flooded paddy test; assay type: in vivo, Oryza sativa; settings: 1000 g ai/ha, visual rating, scale 0 to 100 (0 no effect, 100 complete control), 13 to 15 days
# Summary of the method: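 Plants grow to 1- to 4-leaf stage (2–18 cm) for postemergence spraying, or to 2-leaf stage for the paddy test. Formulated compound is applied. Greenhouse holding lasts 13–15 days. Response is scored visually relative to controls, 0 no effect to 100 complete control; a dash means no result.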
# [22] = tested on: small flower umbrella sedge; assay: Test B flooded paddy test; assay type: in vivo, Cyperus difformis; settings: 1000 g ai/ha, visual rating, scale 0 to 100 (0 no effect, 100 complete control), 13 to 15 days
# Summary of the method: as §4
# [23] = tested on: ducksalad; assay: Test B flooded paddy test; assay type: in vivo, Heteranthera limosa; settings: 1000 g ai/ha, visual rating, scale 0 to 100 (0 no effect, 100 complete control), 13 to 15 days
# Summary of the method: as §4
# [24] = tested on: barnyardgrass; assay: Test B flooded paddy test; assay type: in vivo, Echinochloa crus-galli; settings: 1000 g ai/ha, visual rating, scale 0 to 100 (0 no effect, 100 complete control), 13 to 15 days
# Summary of the method: as §4
# [25] = Postemergence, 500 g ai/ha, 0 to 100 scale, 0 no effect, 100 complete control
# [26] = Postemergence, 2000 g ai/ha, 0 to 100 scale, 0 no effect, 100 complete control
# [27] = Preemergence, 500 g ai/ha, visual rating, 0 to 100 scale (0 no effect, 100 complete control)
# [28] = Preemergence, 2000 g ai/ha, visual rating, 0 to 100 scale (0 no effect, 100 complete control)
# [29] = preemergence, 500 g ai/ha, visual injury, 0 to 100 scale (0 no effect, 100 complete control)
# [30] = 500 g ai/ha, visual rating 0-100, 0 no effect, 100 complete control
# [31] = 125 g ai/ha, 0 to 100 scale, 0 is no effect, 100 is complete control
smiles,measurement,setting,value
CCn1nc(C(C)(C)C)cc1C(=O)Nc1cc(C(=O)NC(C)(C)C)ccn1 [Compound 154],Barnyardgrass plant response rating,[1]; [25],50
same,"Plant response rating, Barnyardgrass",[1]; [26],90
same,Barnyardgrass plant response rating,[1]; [27],30
same,Barnyardgrass plant response rating,[1]; [28],95
same,"Crabgrass, Large plant response rating",[2]; [25],20
same,"Plant response rating, Crabgrass, Large",[2]; [26],30
same,"Crabgrass, Large plant response rating",[2]; [27],25
same,"Crabgrass, Large plant response rating",[2]; [28],85
same,"Foxtail, Giant plant response rating",[3]; [25],20
same,"Plant response rating, Foxtail, Giant",[3]; [26],20
same,"Foxtail, Giant plant response rating",[3]; [27],20
same,"Foxtail, Giant plant response rating",[3]; [28],70
same,Morningglory plant response rating,[4]; [25],20
same,"Plant response rating, Morningglory",[4]; [26],40
same,Morningglory plant response rating,[4]; [27],10
same,Morningglory plant response rating,[4]; [28],30
same,Pigweed plant response rating,[5]; [25],90
same,"Plant response rating, Pigweed",[5]; [26],100
same,Pigweed plant response rating,[5]; [28],100
same,Pigweed plant response rating,[5]; [29],85
same,Velvetleaf plant response rating,[6]; [25],10
same,"Plant response rating, Velvetleaf",[6]; [26],30
same,Velvetleaf plant response rating,[6]; [28],60
same,Velvetleaf plant response rating,[6]; [29],15
same,"Plant response rating, Barnyardgrass",[7]; [30],80
same,Barnyardgrass plant response rating,[7]; 125 g ai/ha,20
same,Barnyardgrass plant response rating,[7]; 500 g ai/ha,50
same,"Plant response rating, Barnyardgrass",[7]; [31],10
same,"Plant response rating, Surinam Grass",[8]; [30],10
same,Surinam Grass plant response rating,[8]; 125 g ai/ha,30
same,Surinam Grass plant response rating,[8]; 500 g ai/ha,60
same,"Plant response rating, Surinam Grass",[8]; [31],0
same,"Plant response rating, Cocklebur",[9]; [30],10
same,Cocklebur plant response rating,[9]; 125 g ai/ha,60
same,Cocklebur plant response rating,[9]; 500 g ai/ha,70
same,"Plant response rating, Cocklebur",[9]; [31],0
same,"Plant response rating, Corn",[10]; [30],0
same,Corn plant response rating,[10]; 125 g ai/ha,10
same,Corn plant response rating,[10]; 500 g ai/ha,20
same,"Plant response rating, Corn",[10]; [31],0
same,"Plant response rating, Crabgrass, Large",[11]; [30],80
same,"Crabgrass, Large plant response rating",[11]; 125 g ai/ha,10
same,"Crabgrass, Large plant response rating",[11]; 500 g ai/ha,20
same,"Plant response rating, Crabgrass, Large",[11]; [31],50
same,"Plant response rating, Foxtail, Giant",[12]; [30],30
same,"Foxtail, Giant plant response rating",[12]; 125 g ai/ha,10
same,"Foxtail, Giant plant response rating",[12]; 500 g ai/ha,20
same,"Plant response rating, Foxtail, Giant",[12]; [31],0
same,"Plant response rating, Lambsquarters",[13]; [30],90
same,Lambsquarters plant response rating,[13]; 125 g ai/ha,80
same,Lambsquarters plant response rating,[13]; 500 g ai/ha,90
same,"Plant response rating, Lambsquarters",[13]; [31],70
same,"Plant response rating, Morningglory",[14]; [30],0
same,Morningglory plant response rating,[14]; 125 g ai/ha,60
same,Morningglory plant response rating,[14]; 500 g ai/ha,70
same,"Plant response rating, Morningglory",[14]; [31],0
same,"Plant response rating, Pigweed",[15]; [30],100
same,Pigweed plant response rating,[15]; 125 g ai/ha,20
same,Pigweed plant response rating,[15]; 500 g ai/ha,80
same,"Plant response rating, Pigweed",[15]; [31],90
same,"Plant response rating, Rice",[16]; [30],0
same,"Plant response rating, Rice",[16]; [31],0
same,"Plant response rating, Velvetleaf",[17]; [30],70
same,Velvetleaf plant response rating,[17]; 125 g ai/ha,20
same,Velvetleaf plant response rating,[17]; 500 g ai/ha,60
same,"Plant response rating, Velvetleaf",[17]; [31],70
same,Blackgrass plant response rating,[18]; 125 g ai/ha,10
same,Blackgrass plant response rating,[18]; 500 g ai/ha,10
same,Wheat plant response rating,[19],10
same,"Oat, Wild plant response rating",[20]; 125 g ai/ha,10
same,"Oat, Wild plant response rating",[20]; 500 g ai/ha,30
same,Rice plant response rating,[21],20
same,"Sedge, Umbrella plant response rating",[22],20
same,Ducksalad plant response rating,[23],80
same,Barnyardgrass plant response rating,[24],50

# From patent US20060069132A1, “Azolecarboxamide herbicides” (priority 2004, published 2006)
